Assay results as given in article PMC10589313 (Nature Communications, 2023).
Values joined by “and” are separate entries in the source; they are usually repeats but may differ in a detail not shown here. Equal values may be shown once.

Columns and labels:
H3R = conditions: read-out: binding affinity for H3R; cited from earlier work
human H4R N147A mutant = biological target: T1, human H4R N147A mutant (Homo sapiens, UniProt Q9H3N8, N147A); experiment: TGFα shedding assay, H4R N147A mutant; type: cell-based; conditions: for EC50: EC50 (nM)
T1 construct: a mutant H4R (human, full-length, and untagged); expressed in transfected cells; host or cells: HEK293A
T1 sequence (Q9H3N8 whole entry N147A): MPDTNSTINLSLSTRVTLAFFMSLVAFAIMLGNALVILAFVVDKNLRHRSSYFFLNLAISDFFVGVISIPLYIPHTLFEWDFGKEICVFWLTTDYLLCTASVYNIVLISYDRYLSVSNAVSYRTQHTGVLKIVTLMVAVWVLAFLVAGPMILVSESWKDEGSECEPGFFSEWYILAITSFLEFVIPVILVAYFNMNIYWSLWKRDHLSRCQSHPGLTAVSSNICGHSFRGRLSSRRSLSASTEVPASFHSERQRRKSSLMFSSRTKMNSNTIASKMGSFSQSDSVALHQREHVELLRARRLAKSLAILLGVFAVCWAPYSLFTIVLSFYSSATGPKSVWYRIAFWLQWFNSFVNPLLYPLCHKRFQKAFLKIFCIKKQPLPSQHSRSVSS
Procedure: (§1) The mutants were prepared using the primers listed in Supplementary Table 2. […] The chimeric Gαq/i1 subunit comprises the Gαq backbone and Gαi1-derived six-amino acid C-terminus and couples with Gi-coupled H4R but induces a Gq-dependent TGFα shedding response. After culturing for 1 day and incubating at 37 °C in a 5% CO2 incubator, the transfected cells were harvested by trypsinization, neutralized with Dulbecco’s modified Eagle’s medium containing 10% fetal calf serum (FCS) and penicillin–streptomycin, washed once with Hank’s balanced salt solution (HBSS) containing 5 mM of HEPES (pH 7.4), and resuspended in 6 mL of the HEPES-containing HBSS. The cell suspension was seeded into a 96-well plate at a volume of […] per well (typically, 48 wells per transfected cells) and incubated for 30 min in the CO2 incubator. Test compounds (10×, diluted in 0.01% BSA and 5 mM of HEPES-containing HBSS, […] volume) were added to duplicate wells and incubated for 1 h. After centrifugation, the conditioned medium ([…]) was transferred to an empty 96-well plate. AP reaction solution [10 mM of p-nitrophenylphosphate (p-NPP), 120 mM of Tris–HCl (pH 9.5), 40 mM of NaCl, and 10 mM of MgCl2] was dispensed into the cell culture plates and plates containing conditioned media ([…]). Absorbance was measured at 405 nm before and after a 1-h incubation period at 25 °C using a microplate reader (iMark™ Microplate Absorbance Reader; BioRad). Ligand-induced AP-TGFα release was calculated as previously described. The vehicle-treated AP-TGFα release signal was set as a baseline unless otherwise specified. AP-TGFα release signals were fitted with a four-parameter sigmoidal concentration-response curve, from which EC50 and Emax values were obtained, using GraphPad Prism 9 software (GraphPad Prism). Negative values of logarithmically transformed EC50 values (pEC50) were used to calculate the mean and standard error of independent experiments.
(§2) All functional study data were analyzed using Prism 9 (GraphPad) and are presented as mean ± standard error of the mean (SEM) of three independent experiments. Statistical analyses were performed using Prism 9 (GraphPad) with one-way analysis of variance followed by Dunnett’s post-hoc test. Values with p < 0.05 are considered statistically significant.

human H4R F344I mutant = biological target: T2, human H4R F344I mutant (Homo sapiens, UniProt Q9H3N8, F344I); experiment: TGFα shedding assay, H4R F344I mutant; type: cell-based
T2 construct: a mutant H4R (human, full-length, and untagged); expressed in transfected cells; host or cells: HEK293A
T2 sequence (Q9H3N8 whole entry F344I): as the sequence (Q9H3N8 whole entry N147A) above, with A147N, F344I counted along it
Procedure: as §1, §2

human H4R N147Y mutant = biological target: T3, human H4R N147Y mutant (Homo sapiens, UniProt Q9H3N8, N147Y); experiment: TGFα shedding assay, H4R N147Y mutant; type: cell-based; conditions: for EC50: EC50 (nM)
T3 construct: a mutant H4R (human, full-length, and untagged); expressed in transfected cells; host or cells: HEK293A
T3 sequence (Q9H3N8 whole entry N147Y): as the sequence (Q9H3N8 whole entry N147A) above, with A147Y counted along it
Procedure: as §1, §2

human wild-type H4R = biological target: T4, human wild-type H4R (Homo sapiens, UniProt Q9H3N8); experiment: TGFα shedding assay, wild-type H4R; type: cell-based
T4 construct: a mutant H4R (human, full-length, and untagged); expressed in transfected cells; host or cells: HEK293A
T4 sequence (Q9H3N8 whole entry): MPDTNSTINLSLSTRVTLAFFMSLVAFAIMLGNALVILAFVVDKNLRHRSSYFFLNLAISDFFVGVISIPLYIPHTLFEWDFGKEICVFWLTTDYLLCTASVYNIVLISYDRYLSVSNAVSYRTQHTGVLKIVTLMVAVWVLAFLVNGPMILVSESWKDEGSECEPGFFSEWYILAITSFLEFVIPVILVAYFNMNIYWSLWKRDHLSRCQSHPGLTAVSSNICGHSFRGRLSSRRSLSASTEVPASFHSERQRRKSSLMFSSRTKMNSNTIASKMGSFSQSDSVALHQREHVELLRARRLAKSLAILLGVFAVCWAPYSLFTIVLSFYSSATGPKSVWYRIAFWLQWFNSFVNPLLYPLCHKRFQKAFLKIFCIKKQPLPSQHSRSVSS
Procedure: as §1, §2

human H4R Q347A mutant = biological target: T5, human H4R Q347A mutant (Homo sapiens, UniProt Q9H3N8, Q347A); experiment: TGFα shedding assay, H4R Q347A mutant; type: cell-based
T5 construct: a mutant H4R (human, full-length, and untagged); expressed in transfected cells; host or cells: HEK293A
T5 sequence (Q9H3N8 whole entry Q347A): as the sequence (Q9H3N8 whole entry N147A) above, with A147N, Q347A counted along it
Procedure: as §1, §2

H1R = conditions: in words; cited from earlier work
H4R = conditions: read-out: binding affinity (Ki) for H4R; cited from earlier work
human H4R T99A mutant = biological target: T6, human H4R T99A mutant (Homo sapiens, UniProt Q9H3N8, T99A); experiment: TGFα shedding assay, H4R T99A mutant; type: cell-based
T6 construct: a mutant H4R (human, full-length, and untagged); expressed in transfected cells; host or cells: HEK293A
T6 sequence (Q9H3N8 whole entry T99A): as the sequence (Q9H3N8 whole entry N147A) above, with T99A, A147N counted along it
Procedure: as §1, §2

[1] = Imetit (M) -5 (log concentration), raw replicate values

N=C(N)SCCc1cnc[nH]1 [Imetit, imetit]
Ki (H3R): 0.3 nM | EC50 (human H4R N147A mutant; N147A mutant): 116 nM | EC50 (human H4R N147A mutant; N147A, single experiments, source data Figure 4e-f): 137 nM and 107 nM and 104 nM | Shedding assay response, N147A (human H4R N147A mutant; [1]): 17.6838 and 20.1153 and 13.587 and 17.1019 and 17.2369 and 16.9193 and 20.3122 and 17.3343 and 19.4779 | fold of change (human H4R N147A mutant; N147A mutant, EC50 relative to WT): 3.9 fold | Emax (human H4R N147A mutant; read-out: Emax (%) mean ± SEM): 17.2 ± 0.52% | EC50 (human H4R F344I mutant): > 10000 nM | signaling activity at mutant, in words (human H4R F344I mutant; F344I (H1R mimic) mutant vs wild type): loss of imetit activity | Shedding assay response, F344I (human H4R F344I mutant; [1]): 1.112 and 4.483 and 7.185 and 5.21 and 4.635 and 3.564 and 4.726 and 4.072 and 2.0567 | EC50 (human H4R N147Y mutant; N147Y mutant): 319 nM | EC50 (human H4R N147Y mutant; N147Y, single experiments, source data Figure 4e-f): 632 nM and 127 nM and 200 nM | Shedding assay response, N147Y (human H4R N147Y mutant; [1]): 5.667 and 6.627 and 11.6194 and 11.6248 and 10.5662 and 9.653 and 14.7457 and 12.0475 and 16.0734 | fold of change (human H4R N147Y mutant; N147Y mutant, EC50 relative to WT): 10.7 fold | Emax (human H4R N147Y mutant; read-out: Emax (%) mean ± SEM): 11.1 ± 1.47% | EC50 (human wild-type H4R; EC50 (nM), WT H4R): 29.9 nM | EC50 (human wild-type H4R; EC50 (nM), hH4R, single experiments (3 columns), source data Figure 4e-f): 30.7 nM and 23 nM | Shedding assay response, WT (human wild-type H4R; [1]): 14.3865 and 12.6364 and 12.8296 and 15.366 and 17.4678 and 18.6444 and 14.3694 and 15.3398 and 17.1099 | fold of change (human wild-type H4R; WT H4R, EC50 relative to WT): 1 fold | EC50 (human wild-type H4R; pEC50, hH4R, single experiments (3 columns), source data Figure 4e-f): 35.8 nM and 30.7 nM | EC50 (human wild-type H4R; pEC50 mean ± SEM, WT H4R, three independent experiments): 29.5 nM | Emax (human wild-type H4R; read-out: Emax (%) mean ± SEM): 14.9 ± 1.19% | EC50 (human H4R Q347A mutant; EC50 (nM), Q347A mutant): 12.7 nM | Shedding assay response, Q347A (human H4R Q347A mutant; [1]): 17.2563 and 18.9409 and 18.4053 and 16.608 and 19.8188 and 22.6245 and 22.4962 and 23.3465 and 23.6643 | fold of change (human H4R Q347A mutant; Q347A mutant, EC50 relative to WT): 0.4 fold | EC50 (human H4R Q347A mutant; pEC50 mean ± SEM, Q347A mutant): 12.3 nM | Emax (human H4R Q347A mutant; read-out: Emax (%) mean ± SEM): 19.3 ± 1.1% | binding to H1R (H1R): does not bind | Ki (H4R): 2.7 nM | EC50 (human H4R T99A mutant): 76 nM | Shedding assay response, T99A (human H4R T99A mutant; [1]): 14.3742 and 14.7391 and 15.3687 and 10.9344 and 9.709 and 12.0103 and 13.6177 and 15.7879 and 16.7579
